Laboratory results published in patent US20240067651A1 (Biohaven Therapeutics Ltd., priority 2019, published 2024).

Tests used:
[1] = Caco-2 Permeability Assay; type: in vitro ADME, human; conditions: human
In short: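 Bidirectional transport at 37 °C for 90 min, 10 μM donor concentration, with or without Pgp inhibitor, across 21-day Caco-2 monolayers with TEER >600 […] in HEPES-buffered HBSS, pH 7.4. LC-MS/MS of donor and receiver samples gives Papp, B→A/A→B efflux ratio and mass recovery.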

[2] = Stability in Simulated Intestinal Fluid (SIF); type: in vitro ADME; set-up: key: % parent compound remaining relative to 0-minute sample
In short: (§1)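 Each compound is spiked to a final 2 μg/mL into SGF with pepsin (pH 1.2) and into SIF with pancreatin (pH 6.8). Samples shake at 37° C, aliquots are taken between 0 and 60 minutes, precipitated with acetonitrile and analysed by LC-MS/MS. Degradation half-life is derived from the natural-log plot where time points allow.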

Plasma Stability = type: in vitro ADME, human
In short: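 Parent compound quantified by LC-MS/MS after acetonitrile precipitation, reported as percent of control remaining (triplicate). Incubation: 1 hour, 37° C, fresh human plasma, compound at 1 μM.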

[3] = Stability in Simulated Gastric Fluid (SGF); type: in vitro ADME; set-up: key: % parent compound remaining relative to 0-minute sample
In short: as §1

[4] = Caco-2, pH 7.4, Caco-2 monolayer
[5] = % remaining at 1 h in simulated intestinal fluid
[6] = % remaining at 1 h in human plasma
[7] = % remaining at 1 h in simulated gastric fluid

Compound: CC(C)OCCn1c(=S)[nH]c(=O)c2c1ccn2COC(=O)CCNC(=O)[C@@H](N)CO.O=C(O)C(F)(F)F [Example 44]
- Papp at 90 min, 10 µM [1, 4]: < 0.222 ×10⁻⁶ cm/s
- SIF [2, 5]: 1% remaining
- human Plasma stability (Plasma Stability; [6]): 5% remaining
- SGF [3, 7]: 96% remaining

Compound: CC(C)OCCn1c(=S)[nH]c(=O)c2c1ccn2COC(=O)CCCCNC(=O)[C@H](Cc1ccc(O)cc1)NC(=O)OC(C)(C)C.O=C(O)C(F)(F)F [Example 45]
- Papp at 90 min, 10 µM ([1]; pH 7.4, Caco-2 monolayer): 2.28 ×10⁻⁶ cm/s
- SIF [2, 5]: 89% remaining
- human Plasma stability (Plasma Stability; [6]): 66% remaining
- SGF [3, 7]: 100%

Compound: CC(C)OCCn1c(=S)[nH]c(=O)c2c1ccn2COC(=O)CCNC(=O)[C@H](Cc1ccc(O)cc1)NC(=O)OC(C)(C)C.O=C(O)C(F)(F)F [Example 46]
- Papp at 90 min, 10 µM [1, 4]: 1.12 ×10⁻⁶ cm/s
- SIF [2, 5]: 100%
- human Plasma stability (Plasma Stability; [6]): 63% remaining
- SGF [3, 7]: 98% remaining

Compound: CC(C)OCCn1c(=S)[nH]c(=O)c2c1ccn2COC(=O)CCCCNC(=O)[C@H](Cc1c[nH]c2ccccc12)NC(=O)OC(C)(C)C.O=C(O)C(F)(F)F [Example 47]
- Papp at 90 min, 10 µM [1, 4]: 9.15 ×10⁻⁶ cm/s
- SIF [2, 5]: 46% remaining
- human Plasma stability (Plasma Stability; [6]): 78% remaining
- SGF [3, 7]: 99% remaining

Compound: CC(C)OCCn1c(=S)[nH]c(=O)c2c1ccn2COC(=O)CCNC(=O)[C@H](Cc1c[nH]c2ccccc12)NC(=O)OC(C)(C)C.O=C(O)C(F)(F)F [Example 48]
- Papp at 90 min, 10 µM [1, 4]: 5.93 ×10⁻⁶ cm/s
- SIF [2, 5]: 89% remaining
- human Plasma stability (Plasma Stability; [6]): 74% remaining
- SGF [3, 7]: 90% remaining

Compound: CC(C)OCCn1c(=S)[nH]c(=O)c2c1ccn2COC(=O)CCCCNC(=O)[C@@H](N)Cc1ccc(O)cc1.O=C(O)C(F)(F)F [Example 49]
- Papp at 90 min, 10 µM [1, 4]: 0.154 ×10⁻⁶ cm/s
- SIF [2, 5]: 92% remaining
- human Plasma stability (Plasma Stability; [6]): 1% remaining
- SGF [3, 7]: 99% remaining

Compound: CC(C)OCCn1c(=S)[nH]c(=O)c2c1ccn2COC(=O)CCNC(=O)[C@@H](N)Cc1ccc(O)cc1.O=C(O)C(F)(F)F [Example 50]
- Papp at 90 min, 10 µM [1, 4]: 0.215 ×10⁻⁶ cm/s
- SIF [2, 5]: 75% remaining
- human Plasma stability (Plasma Stability; [6]): 25% remaining
- SGF [3, 7]: 99% remaining

Compound: CC(C)OCCn1c(=S)[nH]c(=O)c2c1ccn2COC(=O)CCCCNC(=O)[C@@H](N)Cc1c[nH]c2ccccc12.O=C(O)C(F)(F)F [Example 51]
- Papp at 90 min, 10 µM [1, 4]: 0.519 ×10⁻⁶ cm/s
- SIF [2, 5]: 83% remaining
- human Plasma stability (Plasma Stability; [6]): 2% remaining
- SGF [3, 7]: 94% remaining

Compound: CC(C)OCCn1c(=S)[nH]c(=O)c2c1ccn2COC(=O)CCNC(=O)[C@@H](N)Cc1c[nH]c2ccccc12.O=C(O)C(F)(F)F [Example 52]
- Papp at 90 min, 10 µM [1, 4]: 0.23 ×10⁻⁶ cm/s
- SIF [2, 5]: 81% remaining
- human Plasma stability (Plasma Stability; [6]): 61% remaining
- SGF [3, 7]: 95% remaining

Compound: CC(C)OCCn1c(=S)[nH]c(=O)c2c1ccn2COC(=O)CCCCNC(=O)CN(C)C(=O)OC(C)(C)C.O=C(O)C(F)(F)F [Example 53]
- Papp at 90 min, 10 µM [1, 4]: 3.43 ×10⁻⁶ cm/s
- SIF [2, 5]: 98% remaining
- human Plasma stability (Plasma Stability; [6]): 0% remaining
- SGF [3, 7]: 92% remaining

Compound: CC(C)OCCn1c(=S)[nH]c(=O)c2c1ccn2COC(=O)CCNC(=O)CN(C)C(=O)OC(C)(C)C.O=C(O)C(F)(F)F [Example 54]
- Papp at 90 min, 10 µM [1, 4]: 3.14 ×10⁻⁶ cm/s
- SIF [2, 5]: 87% remaining
- human Plasma stability (Plasma Stability; [6]): 74% remaining
- SGF [3, 7]: 93% remaining

Compound: CNCC(=O)NCCCCC(=O)OCn1ccc2c1c(=O)[nH]c(=S)n2CCOC(C)C.O=C(O)C(F)(F)F [Example 55]
- Papp at 90 min, 10 µM [1, 4]: 0.244 ×10⁻⁶ cm/s
- SIF [2, 5]: 98% remaining
- human Plasma stability (Plasma Stability; [6]): 1% remaining
- SGF [3, 7]: 100%

Compound: CNCC(=O)NCCC(=O)OCn1ccc2c1c(=O)[nH]c(=S)n2CCOC(C)C.O=C(O)C(F)(F)F [Example 56]
- Papp at 90 min, 10 µM [1, 4]: 0.144 ×10⁻⁶ cm/s
- SIF [2, 5]: 1% remaining
- human Plasma stability (Plasma Stability; [6]): 0% remaining
- SGF [3, 7]: 64% remaining

Compound: CC(C)OCCn1c(=S)[nH]c(=O)c2c1ccn2COC(=O)CCCCNC(=O)CN(C)C(=O)CNC(=O)OC(C)(C)C.O=C(O)C(F)(F)F [Example 57]
- Papp at 90 min, 10 µM [1, 4]: 0.28 ×10⁻⁶ cm/s
- SIF [2, 5]: 96% remaining
- human Plasma stability (Plasma Stability; [6]): 0% remaining
- SGF [3, 7]: 81% remaining

Compound: CC(C)OCCn1c(=S)[nH]c(=O)c2c1ccn2COC(=O)CCNC(=O)CN(C)C(=O)CNC(=O)OC(C)(C)C.O=C(O)C(F)(F)F [Example 58]
- Papp at 90 min, 10 µM [1, 4]: 0.287 ×10⁻⁶ cm/s
- SIF [2, 5]: 84% remaining
- human Plasma stability (Plasma Stability; [6]): 49% remaining
- SGF [3, 7]: 77% remaining

Compound: CC(C)OCCn1c(=S)[nH]c(=O)c2c1ccn2COC(=O)CCCCNC(=O)CN(C)C(=O)CN.O=C(O)C(F)(F)F [Example 59]
- Papp at 90 min, 10 µM [1, 4]: < 0.254 ×10⁻⁶ cm/s
- SIF [2, 5]: 98% remaining
- human Plasma stability (Plasma Stability; [6]): 11% remaining
- SGF [3, 7]: 95% remaining

Compound: COC(=O)N1CCCC1C(=O)NCCC(=O)OCn1ccc2c1c(=O)[nH]c(=S)n2CCOC(C)C.O=C(O)C(F)(F)F (centres unmarked) [Example 60]
- Papp at 90 min, 10 µM [1, 4]: 0.611 ×10⁻⁶ cm/s
- SIF [2, 5]: 88% remaining
- human Plasma stability (Plasma Stability; [6]): 37% remaining
- SGF [3, 7]: 99% remaining

Compound: COC(=O)N1CCCC1C(=O)NCCCCC(=O)OCn1ccc2c1c(=O)[nH]c(=S)n2CCOC(C)C.O=C(O)C(F)(F)F (centres unmarked) [Example 61]
- Papp at 90 min, 10 µM [1, 4]: 0.971 ×10⁻⁶ cm/s
- SIF [2, 5]: 92% remaining
- human Plasma stability (Plasma Stability; [6]): 0% remaining
- SGF [3, 7]: 98% remaining

Compound: CC(C)OCCn1c(=S)[nH]c(=O)c2c1ccn2COC(=O)CCNC(=O)[C@@H]1CCCN1C(N)=O.O=C(O)C(F)(F)F [Example 62]
- Papp at 90 min, 10 µM [1, 4]: 0.162 ×10⁻⁶ cm/s
- SIF [2, 5]: 99% remaining
- human Plasma stability (Plasma Stability; [6]): 91% remaining
- SGF [3, 7]: 99% remaining

Compound: CC(C)OCCn1c(=S)[nH]c(=O)c2c1ccn2COC(=O)CCCCNC(=O)[C@@H]1CCC(=O)N1C.O=C(O)C(F)(F)F [Example 63]
- Papp at 90 min, 10 µM [1, 4]: 0.2 ×10⁻⁶ cm/s
- SIF [2, 5]: 98% remaining
- human Plasma stability (Plasma Stability; [6]): 0% remaining
- SGF [3, 7]: 97% remaining

Compound: CC(C)OCCn1c(=S)[nH]c(=O)c2c1ccn2COC(=O)CCNC(=O)[C@@H]1CCC(=O)N1C.O=C(O)C(F)(F)F [Example 64]
- Papp at 90 min, 10 µM [1, 4]: < 0.19 ×10⁻⁶ cm/s
- SIF [2, 5]: 97% remaining
- human Plasma stability (Plasma Stability; [6]): 76% remaining
- SGF [3, 7]: 98% remaining

Compound: CCOC(=O)N1CCCC1C(=O)NCCCCC(=O)OCn1ccc2c1c(=O)[nH]c(=S)n2CCOC(C)C.O=C(O)C(F)(F)F (centres unmarked) [Example 65]
- Papp at 90 min, 10 µM [1, 4]: 1.86 ×10⁻⁶ cm/s
- SIF [2, 5]: 89% remaining
- human Plasma stability (Plasma Stability; [6]): 20% remaining
- SGF [3, 7]: 87% remaining

Compound: CCOC(=O)N1CCCC1C(=O)NCCC(=O)OCn1ccc2c1c(=O)[nH]c(=S)n2CCOC(C)C.O=C(O)C(F)(F)F (centres unmarked) [Example 66]
- Papp at 90 min, 10 µM [1, 4]: 0.736 ×10⁻⁶ cm/s
- SIF [2, 5]: 80% remaining
- human Plasma stability (Plasma Stability; [6]): 75% remaining
- SGF [3, 7]: 96% remaining

Compound: CC(C)OCCn1c(=S)[nH]c(=O)c2c1ccn2COC(=O)CCCCNC(=O)C1CCCN1C(=O)OC(C)C.O=C(O)C(F)(F)F (centres unmarked) [Example 67]
- Papp at 90 min, 10 µM [1, 4]: 2.84 ×10⁻⁶ cm/s
- SIF [2, 5]: 93% remaining
- human Plasma stability (Plasma Stability; [6]): 57% remaining
- SGF [3, 7]: 92% remaining

Compound: CC(C)OCCn1c(=S)[nH]c(=O)c2c1ccn2COC(=O)CCNC(=O)C1CCCN1C(=O)OC(C)C.O=C(O)C(F)(F)F (centres unmarked) [Example 68]
- Papp at 90 min, 10 µM [1, 4]: 2.26 ×10⁻⁶ cm/s
- SIF [2, 5]: 69% remaining
- human Plasma stability (Plasma Stability; [6]): 100%
- SGF [3, 7]: 76% remaining

Compound: CC(C)OCCn1c(=S)n(COCC[Si](C)(C)C)c(=O)c2[nH]ccc21 [Example 70, 1-[2-(Propan-2-yloxy)ethyl]-2-sulfanylidene-3-{[2-(trimethylsilyl)ethoxy]methyl}-1H,2H,3H,4H,5H-pyrrolo[3,2-d]pyrimidin-4-one]
- Papp at 90 min, 10 µM ([1]; Caco-2, pH 7.4, no unit printed at the place (tables the 9th table and the 10th table have no head)): 23.2 ×10⁻⁶ cm/s
- SIF ([2]; % remaining at 1 h, SIF with pancreatin pH 6.8, 2 μg/mL, 37° C.): 99%
- human Plasma stability (Plasma Stability; % remaining at 1 h, human plasma, 1 μM, 37° C.): 99%
- SGF ([3]; % remaining at 1 h, SGF with pepsin pH 1.2, 2 μg/mL, 37° C.): 96%
